Values quoted from earlier work in PMC9377340 (Chemical biology & drug design, 2022).
Several values for one entry are separate records, joined by “and”; a condition that tells them apart may be missing. Equal values may be shown once.

Target: human FXIa (Homo sapiens, UniProt P03951)
Conditions: ref Kar et al., 2020

Sequence of human FXIa (P03951 388-625 limits assumed): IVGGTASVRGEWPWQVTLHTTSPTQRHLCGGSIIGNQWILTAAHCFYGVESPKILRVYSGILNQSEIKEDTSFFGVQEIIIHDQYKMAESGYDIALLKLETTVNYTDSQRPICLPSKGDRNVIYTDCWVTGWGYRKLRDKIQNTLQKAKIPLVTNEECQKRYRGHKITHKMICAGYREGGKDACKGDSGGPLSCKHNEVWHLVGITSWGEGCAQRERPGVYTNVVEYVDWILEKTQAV
Sequence of human FXIa (P03951 19-387 limits assumed): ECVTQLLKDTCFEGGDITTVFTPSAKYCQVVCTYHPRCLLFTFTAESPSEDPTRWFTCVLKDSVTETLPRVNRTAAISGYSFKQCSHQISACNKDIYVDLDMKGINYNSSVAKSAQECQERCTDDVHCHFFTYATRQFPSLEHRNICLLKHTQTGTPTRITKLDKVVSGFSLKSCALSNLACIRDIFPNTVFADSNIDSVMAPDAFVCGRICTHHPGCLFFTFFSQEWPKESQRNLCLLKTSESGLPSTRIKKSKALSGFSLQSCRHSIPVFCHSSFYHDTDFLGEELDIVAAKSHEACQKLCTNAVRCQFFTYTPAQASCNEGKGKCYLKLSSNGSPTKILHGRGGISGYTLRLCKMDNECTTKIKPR

IC50 (read-out: IC50, FXIa inhibition): ~7.4 µM and 7.4 µM
HS (Hill slope), FXIa inhibition: 1.9 ± 0.5
ΔY (efficacy), FXIa inhibition: 68.0 ± 3.7%
Substance: benzyl tetraphosphonate [BTP]
